Data published in ChEMBL document CHEMBL1124752, “Cyclobut-A and cyclobut-G: broad-spectrum antiviral agents with potential utility for the therapy of AIDS” (J Med Chem, 1990).
In brackets after ≈: the same amount, converted by molar mass.

Legend:
[1] = tested on: Human immunodeficiency virus 1; assay: Tested for the determination of percentage protection at 100 uM concentrations against HIV-1 in ATH8 Cells; type: functional
[2] = tested on: Human immunodeficiency virus 1; assay: Tested for the determination of percentage protection at 200 uM concentrations against HIV-1 in ATH8 Cells; type: functional
[3] = tested on: Human immunodeficiency virus 1; assay: Tested for the determination of percentage toxicity at 200 uM concentrations against HIV-1 in ATH8 Cells; type: functional
[4] = tested on: Human immunodeficiency virus 1; assay: Tested for the determination of percentage protection at 2 uM concentrations against HIV-1 in ATH8 Cells; type: functional
[5] = tested on: Human immunodeficiency virus 1; assay: Tested for the determination of percentage toxicity at 10 uM concentrations against HIV-1 in ATH8 Cells; type: functional
[6] = tested on: Human immunodeficiency virus 1; assay: Tested for the determination of percentage toxicity at 100 uM concentrations against HIV-1 in ATH8 Cells; type: functional
[7] = tested on: Human immunodeficiency virus 1; assay: Tested for the determination of percentage protection at 10 uM concentrations against HIV-1 in ATH8 Cells; type: functional
[8] = tested on: Human immunodeficiency virus 1; assay: Tested for the determination of percentage toxicity at 100 uM against HIV-1 in ATH8 cells; type: organism-based; details: human immunodeficiency virus 1, ath-8, 100 µM
Murid betaherpesvirus 1 [9] = assay: Tested for the effective dose required to inhibit systemic MCMV in infected mice; type: functional
Human alphaherpesvirus 1 [10] = assay: Tested for the effective dose required to inhibit HSV-1 in infected mice; type: functional, herpes simplex virus
Murid betaherpesvirus 1 [11] = assay: Tested for mean day to death of nonsurvivors against systemic MCMV infection in mice at 11.2 mg/kg/day; type: functional
[12] = tested on: Human immunodeficiency virus 1; assay: Tested for the determination of percentage toxicity at 50 uM against HIV-1 in ATH8 cells; type: organism-based; details: human immunodeficiency virus 1, ath-8, 50 µM
Human alphaherpesvirus 1 [13] = assay: Number of survivors per number of HSV-1 infected mice treated with 18.7 mg/kg/day; 10/10; type: functional, herpes simplex virus
Human alphaherpesvirus 2 [14] = assay: Tested for the effective dose required to inhibit HSV-2 encephalitis in infected mice; type: functional, herpes simplex virus
Human alphaherpesvirus 2 [15] = assay: Tested for mean day to death of nonsurvivors against HSV-2 encephalitis in mice at 125 mg/kg/day; type: functional, herpes simplex virus
Human alphaherpesvirus 1 [16] = assay: In vitro antiviral activity tested against herpesvirus, HSV-1, E-377 strain by plaque reduction assay in human foreskin fibroblasts; type: functional
Human alphaherpesvirus 2 [17] = assay: Number of survivors per number of HSV-2 infected mice treated with 7.8 mg/Kg/day; 5/10; type: functional, herpes simplex virus
Murid betaherpesvirus 1 [18] = assay: Number of survivors per number of systemic MCMV infected mice treated with 100 mg/kg/day; 13/15; type: functional
Raji = assay: Tested for the inhibition of diffuse early antigen production assayed by immunofluorescent monoclonal antibody in Raji cells; type: functional; details: Homo sapiens
Murid betaherpesvirus 1 [19] = assay: Number of survivors per number of systemic MCMV infected mice treated with 11.2 mg/kg/day; 9/15; type: functional
Human alphaherpesvirus 2 [20] = assay: In vitro antiviral activity tested against herpesvirus, HSV-2, X-79 strain by plaque reduction assay in human foreskin fibroblasts; type: functional
[21] = tested on: Human immunodeficiency virus 1; assay: Tested for the determination of percentage protection at 10 uM against HIV-1 in ATH8 cells; type: functional, ATH-8
Human betaherpesvirus 5 [22] = assay: In vitro antiviral activity tested against herpesvirus, HCMV, LA strain by plaque reduction assay in human foreskin fibroblasts; type: functional
Human betaherpesvirus 5 [23] = assay: In vitro antiviral activity tested against herpesvirus, HCMV, AD169 strain by plaque reduction assay in human foreskin fibroblasts; type: functional
Murid betaherpesvirus 1 [24] = assay: Number of survivors per number of systemic MCMV infected mice treated with 3.8 mg/kg/day; 7/15; type: functional
Human alphaherpesvirus 1 [25] = assay: Number of survivors per number of HSV-1 infected mice treated with 4.7 mg/kg/day; 7/10; type: functional, herpes simplex virus
Murid betaherpesvirus 1 [26] = assay: Tested for mean day to death of nonsurvivors against systemic MCMV infection in mice at 3.8 mg/kg/day; type: functional
Human alphaherpesvirus 2 [27] = assay: Number of survivors per number of HSV-2 infected mice treated with 125 mg/kg/day; 8/10; type: functional, herpes simplex virus
Human alphaherpesvirus 1 [28] = assay: Tested for mean day to death of nonsurvivors against HSV-1 infection in mice at 4.7 mg/kg/day; type: functional, herpes simplex virus
[29] = tested on: Human immunodeficiency virus 1; assay: Tested for the determination of percentage protection at 50 uM against HIV-1 in ATH8 cells; type: functional, ATH-8
[30] = tested on: Human immunodeficiency virus 1; assay: Tested for the determination of percentage toxicity at 10 uM against HIV-1 in ATH8 cells; type: organism-based; details: human immunodeficiency virus 1, ath-8, 10 µM
Human alphaherpesvirus 1 [31] = assay: Tested for mean day to death of nonsurvivors against HSV-1 infection in mice at 1.2 mg/kg/day; type: functional, herpes simplex virus
Human betaherpesvirus 5 [32] = assay: In vitro antiviral activity tested against herpesvirus, HCMV, EC strain by plaque reduction assay in human foreskin fibroblasts; type: functional
Murid betaherpesvirus 1 [33] = assay: In vitro antiviral activity tested against herpesvirus, MCMV, Smith strain by plaque reduction assay in mouse embryo fibroblasts; type: functional
Human alphaherpesvirus 2 [34] = assay: Number of survivors per number of HSV-2 infected mice treated with 31.2 mg/Kg/day; 4/10; type: functional, herpes simplex virus
[35] = tested on: Human immunodeficiency virus 1; assay: Tested for the determination of percentage protection at 1 uM against HIV-1 in ATH8 cells; type: functional, ATH-8
Human alphaherpesvirus 3 [36] = assay: In vitro antiviral activity tested against herpesvirus, VZV, OKA strain by plaque reduction assay in human foreskin fibroblasts; type: functional
[37] = tested on: Human immunodeficiency virus 1; assay: Tested for the determination of percentage protection at 100 uM against HIV-1 in ATH8 cells; type: functional, ATH-8
Human alphaherpesvirus 1 [38] = assay: Number of survivors per number of HSV-1 infected mice treated with 1.2 mg/kg/day; 4/10; type: functional, herpes simplex virus
Homo sapiens = species: Homo sapiens; assay: The drug concentration was determined to reduce proliferation of human foreskin fibroblasts to 50% of untreated controls in proliferation assay; type: functional; details: read-out: ID50 (the source's name)
Human betaherpesvirus 5 [39] = assay: In vitro antiviral activity tested against herpesvirus, HCMV, Davis strain by plaque reduction assay in human foreskin fibroblasts; type: functional
Human alphaherpesvirus 2 [40] = assay: In vitro antiviral activity tested against herpesvirus, HSV-2, JEN strain by plaque reduction assay in human foreskin fibroblasts; type: functional
Human alphaherpesvirus 2 [41] = assay: Tested for mean day to death of nonsurvivors against HSV-2 encephalitis in mice at 31.2 mg/kg/day; type: functional, herpes simplex virus
Murid betaherpesvirus 1 [42] = assay: Tested for mean day to death of nonsurvivors against systemic MCMV infection in mice at 33.4 mg/kg/day; type: functional
Human alphaherpesvirus 2 [43] = assay: In vitro antiviral activity tested against herpesvirus, HSV-2, HEET strain by plaque reduction assay in human foreskin fibroblasts; type: functional
Human alphaherpesvirus 2 [44] = assay: In vitro antiviral activity tested against herpesvirus, HSV-2, MS strain by plaque reduction assay in human foreskin fibroblasts; type: functional
Human alphaherpesvirus 2 [45] = assay: Tested for mean day to death of nonsurvivors against HSV-2 encephalitis in mice at 7.8 mg/kg/day; type: functional, herpes simplex virus
Murid betaherpesvirus 1 [46] = assay: Tested for mean day to death of nonsurvivors against systemic MCMV infection in mice at 100 mg/kg/day; type: functional
Murid betaherpesvirus 1 [47] = assay: Number of survivors per number of systemic MCMV infected mice treated with 33.4 mg/kg/day; 13/15; type: functional
Human alphaherpesvirus 3 [48] = assay: In vitro antiviral activity tested against herpesvirus, VZV, Ellen strain by plaque reduction assay in human foreskin fibroblasts; type: functional
[49] = tested on: Human immunodeficiency virus 1; assay: Tested for the determination of percentage toxicity at 1 uM against HIV-1 in ATH8 cells; type: organism-based; details: human immunodeficiency virus 1, ath-8, 1 µM
[50] = read-out: ED50 (the source's name)
[51] = read-out: ID50 (the source's name)

Nc1ncnc2c1ncn2[C@H]1CC[C@@H](CO)O1
Protection [1]: 100% | Protection [2]: 99% | Cytotoxicity [3]: 0% | Protection [4]: 69% | Cytotoxicity [5]: 0% | Cytotoxicity [6]: 8% | Protection [7]: 99%

Nc1nc(O)c2ncn([C@@H]3C[C@H](CO)C3CO)c2n1 (some centres undefined)
Cytotoxity [8]: 83% | ED50 (Murid betaherpesvirus 1 [9]): 2.2 mg/kg/day | ED50 (Human alphaherpesvirus 1 [10]): 1.9 mg/kg/day | MDD (Murid betaherpesvirus 1 [11]): 5.8 | Cytotoxity [12]: 41% | Survivors / treated (Human alphaherpesvirus 1 [13]): 10 | ED50 (Human alphaherpesvirus 2 [14]): 39.8 mg/kg/day | MDD (Human alphaherpesvirus 2 [15]): 16.3 | EC50 (Human alphaherpesvirus 1 [16]; [50]): 0.05 µg/mL (≈ 0.188 µM) | IC50 (Human alphaherpesvirus 1 [16]; [51]): > 100 µg/mL | Survivors / treated (Human alphaherpesvirus 2 [17]): 5 | Survivors / treated (Murid betaherpesvirus 1 [18]): 13 | EC50 (Raji; [50]): 0.01 µg/mL (≈ 0.0377 µM) | IC50 (Raji; [51]): 94 µg/mL (≈ 354 µM) | Survivors / treated (Murid betaherpesvirus 1 [19]): 9 | EC50 (Human alphaherpesvirus 2 [20]; [50]): 0.06 µg/mL (≈ 0.226 µM) | IC50 (Human alphaherpesvirus 2 [20]; [51]): > 100 µg/mL | Protection [21]: 100% | EC50 (Human betaherpesvirus 5 [22]; [50]): 1.2 µg/mL (≈ 4.52 µM) | IC50 (Human betaherpesvirus 5 [22]; [51]): > 100 µg/mL | EC50 (Human betaherpesvirus 5 [23]; [50]): 6.2 µg/mL (≈ 23.4 µM) | IC50 (Human betaherpesvirus 5 [23]; [51]): > 100 µg/mL | Survivors / treated (Murid betaherpesvirus 1 [24]): 7 | Survivors / treated (Human alphaherpesvirus 1 [25]): 7 | MDD (Murid betaherpesvirus 1 [26]): 5.9 | Survivors / treated (Human alphaherpesvirus 2 [27]): 8 | MDD (Human alphaherpesvirus 1 [28]): 9.3 | Protection [29]: 46% | Cytotoxity [30]: 0% | MDD (Human alphaherpesvirus 1 [31]): 9.3 | EC50 (Human betaherpesvirus 5 [32]; [50]): 3.9 µg/mL (≈ 14.7 µM) | IC50 (Human betaherpesvirus 5 [32]; [51]): > 100 µg/mL | EC50 (Murid betaherpesvirus 1 [33]; [50]): 0.1 µg/mL (≈ 0.377 µM) | IC50 (Murid betaherpesvirus 1 [33]; [51]): > 100 µg/mL | Survivors / treated (Human alphaherpesvirus 2 [34]): 4 | Protection [35]: 29% | EC50 (Human alphaherpesvirus 3 [36]; [50]): 0.4 µg/mL (≈ 1.51 µM) | IC50 (Human alphaherpesvirus 3 [36]; [51]): > 100 µg/mL | Protection [37]: 11% | Survivors / treated (Human alphaherpesvirus 1 [38]): 4 | IC50 (Homo sapiens): 27 µg/mL (≈ 102 µM) | EC50 (Human betaherpesvirus 5 [39]; [50]): 4.9 µg/mL (≈ 18.5 µM) | IC50 (Human betaherpesvirus 5 [39]; [51]): > 100 µg/mL | EC50 (Human alphaherpesvirus 2 [40]; [50]): 0.05 µg/mL (≈ 0.188 µM) | IC50 (Human alphaherpesvirus 2 [40]; [51]): > 100 µg/mL | MDD (Human alphaherpesvirus 2 [41]): 11.2 | MDD (Murid betaherpesvirus 1 [42]): 4.5 | EC50 (Human alphaherpesvirus 2 [43]; [50]): 0.07 µg/mL (≈ 0.264 µM) | IC50 (Human alphaherpesvirus 2 [43]; [51]): > 100 µg/mL | EC50 (Human alphaherpesvirus 2 [44]; [50]): 0.07 µg/mL (≈ 0.264 µM) | IC50 (Human alphaherpesvirus 2 [44]; [51]): > 100 µg/mL | MDD (Human alphaherpesvirus 2 [45]): 12.1 | MDD (Murid betaherpesvirus 1 [46]): 3.5 | Survivors / treated (Murid betaherpesvirus 1 [47]): 13 | EC50 (Human alphaherpesvirus 3 [48]; [50]): 0.4 µg/mL (≈ 1.51 µM) | IC50 (Human alphaherpesvirus 3 [48]; [51]): > 100 µg/mL | Cytotoxity [49]: 8%
